In patent US9352013B2, “Uses of bremelanotide in therapy for female sexual dysfunction” (Palatin Technologies, Inc., priority 2012, dated 2016):
Marks after values point to notes of the source that are not given here.

Assay: Example 1: ambulatory blood pressure monitoring
Assay type: in vivo, human
Details: for Pulse: treatment group difference (from placebo) in mean change from single-blind placebo: in bpm (unit assumed); for DBP: treatment group difference (from placebo) in mean change from single-blind placebo / SBP: treatment group difference (from placebo) in mean change from single-blind placebo: in mmHg (unit assumed); for HR-BP Product: treatment group difference (from placebo) in mean change from single-blind placebo: in mmHg·bpm (unit assumed)
Description: Ambulatory blood pressure monitoring was conducted following both placebo and randomized treatment group in-clinic administrations. Three periods of ambulatory blood pressure monitoring were included, the first period was from before to 24 hours after a single, in-clinic dose of placebo (to establish a baseline); the second and third periods occurred from before to 24 hours after each of 2 single, in-clinic doses of double-blind treatment, administered within 14 days of each other. Blood samples for pharmacokinetic analysis were collected before and at 0.5, 1.0, and 2.0 hours after each in-clinic bremelanotide single-dose treatment (double-blind only), to permit analysis of concentration-response relationships.
Mean changes in blood pressure were characterized in all subjects based on sequential supervised dosing of single-blind subcutaneous placebo and two doses of randomized study drug. The primary analysis for mean changes was the difference between treatment groups in the change from single-blind placebo to randomized drug (Visit 2 vs. Visits 5/7). There were between 86 to 100 subjects in each dose group.
Although there were an increased number of outliers for maximal changes from baseline in systolic blood pressure in drug-treated patients, the duration of these events was quite limited. The interrogation interval during ambulatory blood pressure monitoring assessments of 15 minutes allowed definition of the maximal duration of such excursions. […] The clinical significance of such changes, if any, is small.

[1] = 0.75 mg SC, interval 0-24 h, V5
[2] = 0.75 mg SC, interval 0-24 h, V7
[3] = 0.75 mg SC, interval 8-24 h, V5
[4] = 0.75 mg SC, interval 8-24 h, V7
[5] = 1.25 mg SC, interval 0-24 h, V5
[6] = 1.25 mg SC, interval 0-24 h, V7
[7] = 1.25 mg SC, interval 8-24 h, V5
[8] = 1.25 mg SC, interval 8-24 h, V7

CCCC[C@H](NC(C)=O)C(=O)N[C@H]1CC(=O)NCCCC[C@@H](C(=O)O)NC(=O)[C@H](Cc2c[nH]c3ccccc23)NC(=O)[C@H](CCCNC(=N)N)NC(=O)[C@@H](Cc2ccccc2)NC(=O)[C@H](Cc2c[nH]cn2)NC1=O [bremelanotide, Ac-Nle-cyclo(-Asp-His-D-Phe-Arg-Trp-Lys)-OH]
Systolic blood pressure shifts: ΔSBP >10 mmHg, Duration >30 minutes (0.75 mg SC): 1
Systolic blood pressure shifts: ΔSBP >15 mmHg, Duration >30 minutes (0.75 mg SC): 0
Pulse: treatment group difference (from placebo) in mean change from single-blind placebo (0.75 mg SC, interval 0-4 h, V5): −5.2*
DBP: treatment group difference (from placebo) in mean change from single-blind placebo (0.75 mg SC, interval 0-4 h, V5): 1.5
SBP: treatment group difference (from placebo) in mean change from single-blind placebo (0.75 mg SC, interval 0-4 h, V5): 1.8
HR-BP Product: treatment group difference (from placebo) in mean change from single-blind placebo (0.75 mg SC, interval 0-4 h, V5): −492.8*
Pulse: treatment group difference (from placebo) in mean change from single-blind placebo (0.75 mg SC, interval 0-4 h, V7): −4.8*
DBP: treatment group difference (from placebo) in mean change from single-blind placebo (0.75 mg SC, interval 0-4 h, V7): 0.6
SBP: treatment group difference (from placebo) in mean change from single-blind placebo (0.75 mg SC, interval 0-4 h, V7): 1.1
HR-BP Product: treatment group difference (from placebo) in mean change from single-blind placebo (0.75 mg SC, interval 0-4 h, V7): −491.9*
Pulse: treatment group difference (from placebo) in mean change from single-blind placebo [1]: −2.2*
DBP: treatment group difference (from placebo) in mean change from single-blind placebo [1]: 1.1*
SBP: treatment group difference (from placebo) in mean change from single-blind placebo [1]: 1.1
HR-BP Product: treatment group difference (from placebo) in mean change from single-blind placebo [1]: −187.7
Pulse: treatment group difference (from placebo) in mean change from single-blind placebo [2]: −1.6
DBP: treatment group difference (from placebo) in mean change from single-blind placebo [2]: 1.3*
SBP: treatment group difference (from placebo) in mean change from single-blind placebo [2]: 1.5
HR-BP Product: treatment group difference (from placebo) in mean change from single-blind placebo [2]: −82.3
Pulse: treatment group difference (from placebo) in mean change from single-blind placebo (0.75 mg SC, interval 4-8 h, V5): −6.2*
DBP: treatment group difference (from placebo) in mean change from single-blind placebo (0.75 mg SC, interval 4-8 h, V5): 1.3
SBP: treatment group difference (from placebo) in mean change from single-blind placebo (0.75 mg SC, interval 4-8 h, V5): 0.9
HR-BP Product: treatment group difference (from placebo) in mean change from single-blind placebo (0.75 mg SC, interval 4-8 h, V5): −676.5*
Pulse: treatment group difference (from placebo) in mean change from single-blind placebo (0.75 mg SC, interval 4-8 h, V7): −5.5*
DBP: treatment group difference (from placebo) in mean change from single-blind placebo (0.75 mg SC, interval 4-8 h, V7): 1.7
SBP: treatment group difference (from placebo) in mean change from single-blind placebo (0.75 mg SC, interval 4-8 h, V7): 1.6
HR-BP Product: treatment group difference (from placebo) in mean change from single-blind placebo (0.75 mg SC, interval 4-8 h, V7): −503.3*
Pulse: treatment group difference (from placebo) in mean change from single-blind placebo [3]: −0.4
DBP: treatment group difference (from placebo) in mean change from single-blind placebo [3]: 1.0
SBP: treatment group difference (from placebo) in mean change from single-blind placebo [3]: 0.9
HR-BP Product: treatment group difference (from placebo) in mean change from single-blind placebo [3]: 5.2
Pulse: treatment group difference (from placebo) in mean change from single-blind placebo [4]: 0.1
DBP: treatment group difference (from placebo) in mean change from single-blind placebo [4]: 1.3*
SBP: treatment group difference (from placebo) in mean change from single-blind placebo [4]: 1.6
HR-BP Product: treatment group difference (from placebo) in mean change from single-blind placebo [4]: 114.9
Systolic blood pressure shifts: ΔSBP >10 mmHg, Duration >30 minutes (1.25 mg SC): 2
Systolic blood pressure shifts: ΔSBP >15 mmHg, Duration >30 minutes (1.25 mg SC): 0
Pulse: treatment group difference (from placebo) in mean change from single-blind placebo (1.25 mg SC, interval 0-4 h, V5): −5.2*
DBP: treatment group difference (from placebo) in mean change from single-blind placebo (1.25 mg SC, interval 0-4 h, V5): 3.0*
SBP: treatment group difference (from placebo) in mean change from single-blind placebo (1.25 mg SC, interval 0-4 h, V5): 2.4*
HR-BP Product: treatment group difference (from placebo) in mean change from single-blind placebo (1.25 mg SC, interval 0-4 h, V5): −436.4*
Pulse: treatment group difference (from placebo) in mean change from single-blind placebo (1.25 mg SC, interval 0-4 h, V7): −6.1*
DBP: treatment group difference (from placebo) in mean change from single-blind placebo (1.25 mg SC, interval 0-4 h, V7): 2.2*
SBP: treatment group difference (from placebo) in mean change from single-blind placebo (1.25 mg SC, interval 0-4 h, V7): 2.1*
HR-BP Product: treatment group difference (from placebo) in mean change from single-blind placebo (1.25 mg SC, interval 0-4 h, V7): −583.3*
Pulse: treatment group difference (from placebo) in mean change from single-blind placebo [5]: −2.9*
DBP: treatment group difference (from placebo) in mean change from single-blind placebo [5]: 1.9*
SBP: treatment group difference (from placebo) in mean change from single-blind placebo [5]: 1.1
HR-BP Product: treatment group difference (from placebo) in mean change from single-blind placebo [5]: −265.9
Pulse: treatment group difference (from placebo) in mean change from single-blind placebo [6]: −2.6*
DBP: treatment group difference (from placebo) in mean change from single-blind placebo [6]: 1.7*
SBP: treatment group difference (from placebo) in mean change from single-blind placebo [6]: 1.6*
HR-BP Product: treatment group difference (from placebo) in mean change from single-blind placebo [6]: −206.5
Pulse: treatment group difference (from placebo) in mean change from single-blind placebo (1.25 mg SC, interval 4-8 h, V5): −6.1*
DBP: treatment group difference (from placebo) in mean change from single-blind placebo (1.25 mg SC, interval 4-8 h, V5): 2.2*
SBP: treatment group difference (from placebo) in mean change from single-blind placebo (1.25 mg SC, interval 4-8 h, V5): 1.4
HR-BP Product: treatment group difference (from placebo) in mean change from single-blind placebo (1.25 mg SC, interval 4-8 h, V5): −621.0*
Pulse: treatment group difference (from placebo) in mean change from single-blind placebo (1.25 mg SC, interval 4-8 h, V7): −6.5*
DBP: treatment group difference (from placebo) in mean change from single-blind placebo (1.25 mg SC, interval 4-8 h, V7): 0.9
SBP: treatment group difference (from placebo) in mean change from single-blind placebo (1.25 mg SC, interval 4-8 h, V7): 1.3*
HR-BP Product: treatment group difference (from placebo) in mean change from single-blind placebo (1.25 mg SC, interval 4-8 h, V7): −669.7*
Pulse: treatment group difference (from placebo) in mean change from single-blind placebo [7]: −1.5
DBP: treatment group difference (from placebo) in mean change from single-blind placebo [7]: 1.4*
SBP: treatment group difference (from placebo) in mean change from single-blind placebo [7]: 0.7
HR-BP Product: treatment group difference (from placebo) in mean change from single-blind placebo [7]: −127.4
Pulse: treatment group difference (from placebo) in mean change from single-blind placebo [8]: −0.7
DBP: treatment group difference (from placebo) in mean change from single-blind placebo [8]: 1.7*
SBP: treatment group difference (from placebo) in mean change from single-blind placebo [8]: 1.5*
HR-BP Product: treatment group difference (from placebo) in mean change from single-blind placebo [8]: 4.2
Systolic blood pressure shifts: ΔSBP >10 mmHg, Duration >30 minutes (1.75 mg SC): 0
Systolic blood pressure shifts: ΔSBP >15 mmHg, Duration >30 minutes (1.75 mg SC): 0
Pulse: treatment group difference (from placebo) in mean change from single-blind placebo (1.75 mg SC, interval 0-4 h, V5): −4.6*
DBP: treatment group difference (from placebo) in mean change from single-blind placebo (1.75 mg SC, interval 0-4 h, V5): 3.2*
